Reference: patent publication US9968624B2, “Depression treatment agent” (THE UNIVERSITY OF TOKYO, priority 2014, dated 2018)

What was measured:
[1] = tested on: mice (BALB/c and C57BL/6 strains); conditions: BALB/c strain, fluoxetine 10 mg/kg/day; drug non-administration group about 125-130 sec; cited from earlier work
[2] = tested on: mice (C57BL/6 strain, male); assay: Forced swim test (ManNAc oral administration); type: in vivo, mouse; conditions: juvenile mice (10- to 14-week-old), 5 mg/ml in drinking water for 4 weeks, 6 min test; control group about 2 min
Method: ManNAc was dissolved in drinking water, and drinking water having a concentration of 5 mg/ml was administered to juvenile mice (C57BL/6 strain, male) by administration by free drinking of water for 4 weeks in total from 10-week-old to 14-week-old (ManNAc administration group: 16 mice). The mice of the control group in the same age in weeks were allowed to take drinking water freely (control group: 16 mice).
Similarly, 5 mg/ml ManNAc-containing drinking water was administered to aged mice (C57BL/6 strain, male) by administration by free drinking of water for 4 weeks in total from […] (ManNAc administration group: 14 mice). The mice of the control group in the same age in weeks were allowed to take drinking water freely (control group: 15 mice).
According to the method described in S. C. […] The mice were graded with regard to 4 evaluation criteria: swimming, immobility, climbing, and others, and a dominant behavior was recorded every 5 sec. […]
When a mouse is forcibly placed in a water pool, it tries to swim to the shore. […] The forced swim test for 6 min enables quantification of immobility in a water tank, and the immobility has been proposed to be similar to “behavioral despair”, observed in depression.

[3] = tested on: juvenile mice (C57BL/6 strain, male); assay: Social defeat test; type: in vivo, mouse; conditions: defeat stress experience mice, 5 mg/ml in drinking water for 4 weeks, latter 3 min of 5 min
Method: Under conditions similar to those in Example 1, ManNAc was administered to juvenile mice (C57BL/6 strain, male) by administration by free drinking of water for 4 weeks in total from 10-week-old to 14-week-old (ManNAc administration group: 14 mice). The mice of the control group in the same age in weeks were allowed to take drinking water freely (control group: 14 mice).
A mouse that lived with a more aggressive mouse (aggressive mouse) for a given period (1 hr) stays away from the aggressive mouse thereafter. This test method reflects higher brain functions, and was developed as a social defeat test and widely utilized as a system for evaluating social anxiety (Nature (2008) 455, 894-902). The ManNAc administration group and the control group were made to stay together with an aggressive mouse (one-to-one) for 1 hr per day, and the defeat stress was imposed for 5 days. […] The number of times the defeat stress experience mouse intruded a contact zone formed on the periphery of the compartment in which the aggressive mouse was housed, and the sniffing time of the defeat stress experience mouse were measured in the latter 3 minutes of 5 minutes. […]

[4] = tested on: mice (C57BL/6 strain, male); assay: Forced swim test (5S-ManNAcF intracerebroventricular administration, one week); type: in vivo, mouse
Method: Similar to Example 3, 5S-ManNAcF (0.01, 0.1, 1 mmol/L administration group: each 9-10 mice) was administered intracerebroventricularly. The dosing period was one week. The mice of the control group in the same age in weeks were administered with saline (control group: each 9-10 mice, SAL).
A forced swim test similar to that in Example 1 was performed at 1 week after administration.

[5] = tested on: mice (C57BL/6 strain, male); assay: Forced swim test (5S-ManNAcF, ManNAc, intracerebroventricular administration, 3 weeks); type: in vivo, mouse; conditions: 0.1 mmol/L in saline, intracerebroventricular by osmotic pump for 3 weeks, vs saline
Method: Using 8-9-week-old mice (C57BL/6 strain, male) having a catheter transplanted in the cerebroventricle, and carrying a connected osmotic pump (0.11 μl/hr, Alzet, No1004, 100 μl is released in 28 days) on the back, 5S-ManNAcF (0.01, 0.1 mmol/L) or ManNAc (100 mmol/L) dissolved in saline was intracerebroventricularly administered for 3 weeks (administration group: each 9-10 mice). The mice of the control group in the same age in weeks were administered with saline (control group: each 9-10 mice, SAL).
A forced swim test similar to that in Example 1 was performed at 3 weeks after administration.

SMILES: CNCCC(Oc1ccc(C(F)(F)F)cc1)c1ccccc1 (stereo not shown) [fluoxetine]
- immobilization time [1]: about 100 sec

SMILES: CC(=O)N[C@@H]1C(O)O[C@H](CO)[C@@H](O)[C@@H]1O (stereo partly drawn) [ManNAc, N-acetyl-D-mannosamine]
- total immobilization time [2]: about 1 min
- contact zone intrusion number [3]: a significant difference was not found
- sniffing time (sniffing behavior) ([3]; water group about 20 sec or below, stress non-experience group about 30 sec): about 30 sec

SMILES: O=C(CF)NC1C(O)SC(CO)[C@@H](O)C1O (stereo partly drawn) [5S-ManNAcF]
- total immobilization time as compared to the control group ([4]; 0.1 mmol/L in saline, intracerebroventricular by osmotic pump for one week, vs saline): significantly decreased
- effect on total immobilization time, comparison of concentrations ([4]; 0.1 mmol/L vs 1 mmol/L, intracerebroventricular for one week): tendency of a higher effect at a concentration of 0.1 mmol/L than a high dose of 1 mmol/L
- total immobilization time as compared to the control group [5]: significantly decreased
